± gives the uncertainty stated by the source.
Experiment: xn = mol fraction of the nth substance listed

CC(C)CCCCCCCOC(=O)c1ccccc1C(=O)OCCCCCCCC(C)C + O
viscosity [mPa·s], 101 kPa
Details | 293.23 K | 298.26 K
x2 = 0.0005 | 122.8 ± 2.6 | 87.79 ± 1.6
x2 = 0.00265 | 122.3 ± 2.6 | 87.38 ± 1.6

CC(C)CCO + O
Details | viscosity [mPa·s]
293.15 K, 101.33 kPa, x1 = 0.0021 | 1.074 ± 0.011
293.15 K, 101.33 kPa, x1 = 0.0042 | 1.123 ± 0.011
293.15 K, 101.33 kPa, x1 = 0.0052 | 1.47 ± 0.015
298.15 K, 101 kPa, x2 = 0.0019 | 3.738 ± 0.034
298.15 K, 101 kPa, x2 = 0.0485 | 3.634 ± 0.035
298.15 K, 101 kPa, x2 = 0.091 | 3.563 ± 0.037
298.15 K, 101 kPa, x2 = 0.1325 | 3.518 ± 0.038
298.15 K, 101 kPa, x2 = 0.1769 | 3.49 ± 0.04
298.15 K, 101 kPa, x2 = 0.2065 | 3.482 ± 0.041
298.15 K, 101 kPa, x2 = 0.2272 | 3.48 ± 0.043
298.15 K, 101 kPa, x2 = 0.2538 | 3.486 ± 0.044
298.15 K, 101 kPa, x2 = 0.3132 | 3.518 ± 0.048
303.15 K, 101.33 kPa, x1 = 0.0021 | 0.851 ± 0.0085
303.15 K, 101.33 kPa, x1 = 0.0042 | 0.894 ± 0.0089
303.15 K, 101.33 kPa, x1 = 0.0052 | 0.907 ± 0.0091
313.15 K, 101.33 kPa, x1 = 0.0021 | 0.693 ± 0.0069
313.15 K, 101.33 kPa, x1 = 0.0042 | 0.721 ± 0.0072
323.15 K, 101.33 kPa, x1 = 0.0021 | 0.59 ± 0.0059
323.15 K, 101.33 kPa, x1 = 0.0042 | 0.617 ± 0.0062

CCCC[P+](CCCC)(CCCC)CCCC.[Br-] + O
Details | viscosity [mPa·s]
308.15 K, 101 kPa, x1 = 0.08254 | 6.085 ± 0.2

CC[N+](CC)(CC)CC.[Br-] + O
298.15 K, 101 kPa
Details | viscosity [mPa·s]
x1 = 0.0009 | 0.8894
x1 = 0.0089 | 1.059
x1 = 0.0177 | 1.314
x1 = 0.0348 | 2.397

CNC(C)=O + O
viscosity [mPa·s]
Details | 303.18 K | 308.15 K | 313.15 K | 318.15 K
101 kPa, x2 = 0.0402 | 3.71 ± 0.03 | – | – | –
101 kPa, x2 = 0.1032 | 3.81 ± 0.03 | – | – | –
101 kPa, x2 = 0.2124 | 4.02 ± 0.03 | – | – | –
101 kPa, x2 = 0.3814 | 4.33 ± 0.03 | – | – | –
101 kPa, x2 = 0.455 | 4.42 ± 0.03 | – | – | –
101 kPa, x2 = 0.5528 | 4.37 ± 0.04 | – | – | –
101 kPa, x2 = 0.7092 | 3.7 ± 0.03 | – | – | –
101 kPa, x2 = 0.8121 | 2.89 ± 0.03 | – | – | –
101.33 kPa, x1 = 0.0301 | – | 0.997 ± 0.006 | 0.893 ± 0.006 | 0.812 ± 0.005
101.33 kPa, x1 = 0.06 | – | 1.293 ± 0.008 | 1.137 ± 0.007 | 1.026 ± 0.006
101.33 kPa, x1 = 0.1002 | – | 1.693 ± 0.01 | 1.465 ± 0.009 | 1.301 ± 0.008
101.33 kPa, x1 = 0.15 | – | 2.24 ± 0.013 | 1.902 ± 0.011 | 1.651 ± 0.01
101.33 kPa, x1 = 0.1999 | – | 2.766 ± 0.016 | 2.326 ± 0.014 | 2.001 ± 0.012
101.33 kPa, x1 = 0.245 | – | 3.108 ± 0.018 | 2.626 ± 0.016 | 2.257 ± 0.013
101.33 kPa, x1 = 0.3006 | – | 3.402 ± 0.02 | 2.882 ± 0.017 | 2.483 ± 0.015
101.33 kPa, x1 = 0.3502 | – | 3.597 ± 0.021 | 3.063 ± 0.018 | 2.646 ± 0.016
101.33 kPa, x1 = 0.4012 | – | 3.748 ± 0.022 | 3.198 ± 0.019 | 2.769 ± 0.017
101.33 kPa, x1 = 0.4501 | – | 3.852 ± 0.023 | 3.3 ± 0.02 | 2.859 ± 0.018
101.33 kPa, x1 = 0.5 | – | 3.921 ± 0.024 | 3.37 ± 0.021 | 2.914 ± 0.018
101.33 kPa, x1 = 0.5502 | – | 3.942 ± 0.025 | 3.398 ± 0.021 | 2.938 ± 0.019
101.33 kPa, x1 = 0.6018 | – | 3.906 ± 0.025 | 3.382 ± 0.022 | 2.928 ± 0.019
101.33 kPa, x1 = 0.655 | – | 3.825 ± 0.025 | 3.327 ± 0.022 | 2.894 ± 0.019
101.33 kPa, x1 = 0.7019 | – | 3.765 ± 0.025 | 3.281 ± 0.022 | 2.869 ± 0.019
101.33 kPa, x1 = 0.7551 | – | 3.688 ± 0.025 | 3.226 ± 0.022 | 2.832 ± 0.019
101.33 kPa, x1 = 0.807 | – | 3.606 ± 0.025 | 3.167 ± 0.022 | 2.797 ± 0.02
101.33 kPa, x1 = 0.845 | – | 3.554 ± 0.025 | 3.13 ± 0.022 | 2.768 ± 0.02
101.33 kPa, x1 = 0.9015 | – | 3.495 ± 0.025 | 3.077 ± 0.022 | 2.733 ± 0.02
101.33 kPa, x1 = 0.95 | – | 3.44 ± 0.025 | 3.044 ± 0.022 | 2.703 ± 0.02

NCC(=O)NCC(=O)NCC(=O)O + O
viscosity [mPa·s]
Details | 298.15 K | 303.15 K | 308.15 K | 313.15 K | 318.15 K
100 kPa, x1 = 0.0008998 | 0.9044 ± 0.008 | 0.8108 ± 0.0073 | 0.7322 ± 0.0067 | 0.6656 ± 0.0062 | 0.6079 ± 0.0057
100 kPa, x1 = 0.001798 | 0.9128 ± 0.0081 | 0.8191 ± 0.0073 | 0.7406 ± 0.0067 | 0.6738 ± 0.0062 | 0.6157 ± 0.0058
100 kPa, x1 = 0.002695 | 0.9213 ± 0.0081 | 0.8272 ± 0.0074 | 0.7481 ± 0.0068 | 0.6812 ± 0.0063 | 0.6229 ± 0.0058
100 kPa, x1 = 0.00359 | 0.9287 ± 0.0082 | 0.8347 ± 0.0075 | 0.7552 ± 0.0069 | 0.6885 ± 0.0063 | 0.6298 ± 0.0059
100 kPa, x1 = 0.004483 | 0.9364 ± 0.0083 | 0.8418 ± 0.0076 | 0.7623 ± 0.0069 | 0.6953 ± 0.0064 | 0.6366 ± 0.006
100 kPa, x1 = 0.005375 | 0.9426 ± 0.0084 | 0.8482 ± 0.0076 | 0.7691 ± 0.007 | 0.7018 ± 0.0065 | 0.6429 ± 0.006
100 kPa, x1 = 0.006266 | 0.95 ± 0.0085 | 0.8548 ± 0.0077 | 0.7757 ± 0.0071 | 0.7082 ± 0.0066 | 0.6492 ± 0.0061
100 kPa, x1 = 0.007154 | 0.9566 ± 0.0085 | 0.8615 ± 0.0078 | 0.7818 ± 0.0072 | 0.7147 ± 0.0067 | 0.6552 ± 0.0062
101 kPa, x1 = 0.000199 | 0.8947 ± 0.019 | – | 0.7233 ± 0.018 | – | 0.5994 ± 0.016
101 kPa, x1 = 0.000396 | 0.8988 ± 0.019 | – | 0.7269 ± 0.018 | – | 0.6027 ± 0.016
101 kPa, x1 = 0.0006084 | 0.9032 ± 0.02 | – | 0.7307 ± 0.018 | – | 0.6058 ± 0.016
101 kPa, x1 = 0.0007854 | 0.9075 ± 0.02 | – | 0.7343 ± 0.018 | – | 0.6087 ± 0.016
101 kPa, x1 = 0.001106 | 0.9149 ± 0.02 | – | 0.7403 ± 0.018 | – | 0.6138 ± 0.016
101 kPa, x1 = 0.001839 | 0.9325 ± 0.02 | – | 0.7547 ± 0.018 | – | 0.6255 ± 0.017
101 kPa, x1 = 0.002563 | 0.9511 ± 0.02 | – | 0.7694 ± 0.018 | – | 0.637 ± 0.017
101 kPa, x1 = 0.003356 | 0.9729 ± 0.02 | – | 0.7857 ± 0.018 | – | 0.6495 ± 0.017
101 kPa, x1 = 0.0046 | 1.01 ± 0.021 | – | 0.8123 ± 0.019 | – | 0.6694 ± 0.017

O=S(=O)([O-])c1ccc(Cl)cc1.[Na+] + O
viscosity [mPa·s], 101 kPa
Details | x1 = 9e-05 | x1 = 0.00018 | x1 = 0.0009 | x1 = 0.0018 | x1 = 0.00448 | x1 = 0.00893 | x1 = 0.0133 | x1 = 0.0177
298.15 K | 0.899 ± 0.009 | 0.9 ± 0.009 | 0.916 ± 0.009 | 0.939 ± 0.01 | 1 ± 0.01 | 1.103 ± 0.011 | 1.219 ± 0.013 | –
318.15 K | 0.598 ± 0.006 | 0.599 ± 0.006 | 0.608 ± 0.006 | 0.623 ± 0.006 | 0.659 ± 0.006 | 0.723 ± 0.007 | 0.793 ± 0.008 | 0.869 ± 0.008

[Ba+2].[Cl-].[Cl-] + O
viscosity [mPa·s], 101.3 kPa
Details | x1 = 0.0009 | x1 = 0.0018 | x1 = 0.00893 | x1 = 0.0125 | x1 = 0.0177 | x1 = 0.02116 | x1 = 0.02631
293.15 K | 1.016 ± 0.022 | 1.027 ± 0.022 | 1.123 ± 0.024 | 1.174 ± 0.025 | 1.261 ± 0.027 | 1.325 ± 0.028 | 1.43 ± 0.03
298.15 K | 0.9041 ± 0.019 | 0.9144 ± 0.019 | 1.005 ± 0.021 | 1.053 ± 0.022 | 1.134 ± 0.024 | 1.194 ± 0.025 | 1.29 ± 0.027
303.15 K | 0.8105 ± 0.017 | 0.8204 ± 0.017 | 0.9062 ± 0.019 | 0.9513 ± 0.02 | 1.027 ± 0.022 | 1.082 ± 0.023 | 1.171 ± 0.025
308.15 K | 0.7315 ± 0.015 | 0.7405 ± 0.016 | 0.8219 ± 0.017 | 0.8637 ± 0.018 | 0.9352 ± 0.02 | 0.9867 ± 0.021 | 1.069 ± 0.023
318.15 K | 0.6068 ± 0.013 | 0.6141 ± 0.013 | 0.688 ± 0.015 | 0.725 ± 0.015 | 0.788 ± 0.017 | 0.8328 ± 0.018 | 0.9047 ± 0.019

Source: the CheMixHub viscosity set
